Read-outs that look alike come from different tables or passages of the source.
What was measured:
Type in all cases: binding
[1] = target: T1, HeLa cell extract proteins (Homo sapiens, UniProt P20671)
T1 construct: endogenous in cells; host or cells: HeLa cell extract

[2] = target: T2, HeLa cell extract proteins (Homo sapiens, UniProt Q6L8Q7)
T2 construct: endogenous in cells; host or cells: HeLa cell extract
T2 sequence (Q6L8Q7 43-609): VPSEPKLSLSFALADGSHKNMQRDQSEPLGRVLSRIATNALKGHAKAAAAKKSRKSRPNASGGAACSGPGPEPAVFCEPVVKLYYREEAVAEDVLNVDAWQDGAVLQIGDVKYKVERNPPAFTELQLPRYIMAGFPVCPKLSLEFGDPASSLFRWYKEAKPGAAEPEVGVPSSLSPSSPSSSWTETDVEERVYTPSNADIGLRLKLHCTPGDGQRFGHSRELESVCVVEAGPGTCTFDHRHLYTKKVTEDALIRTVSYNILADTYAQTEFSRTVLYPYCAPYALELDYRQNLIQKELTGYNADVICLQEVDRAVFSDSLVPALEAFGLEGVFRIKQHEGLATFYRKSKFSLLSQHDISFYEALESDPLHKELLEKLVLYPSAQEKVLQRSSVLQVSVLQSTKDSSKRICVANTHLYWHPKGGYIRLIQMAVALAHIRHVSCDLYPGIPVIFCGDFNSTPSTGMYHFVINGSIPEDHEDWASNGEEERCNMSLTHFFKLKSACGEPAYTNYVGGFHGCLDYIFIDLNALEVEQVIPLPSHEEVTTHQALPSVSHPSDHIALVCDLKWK

[3] = target: T3, HeLa cell extract proteins (Homo sapiens, UniProt P14174)
T3 construct: endogenous in cells; host or cells: HeLa cell extract
T3 sequence (P14174 1-115): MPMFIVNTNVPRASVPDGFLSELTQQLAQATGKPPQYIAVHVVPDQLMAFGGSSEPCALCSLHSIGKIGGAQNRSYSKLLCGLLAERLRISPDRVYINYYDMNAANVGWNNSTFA

[4] = target: T4, HeLa cell extract proteins (Homo sapiens, UniProt Q9UNM6)
T4 construct: endogenous in cells; host or cells: HeLa cell extract
T4 sequence (Q9UNM6 1-376): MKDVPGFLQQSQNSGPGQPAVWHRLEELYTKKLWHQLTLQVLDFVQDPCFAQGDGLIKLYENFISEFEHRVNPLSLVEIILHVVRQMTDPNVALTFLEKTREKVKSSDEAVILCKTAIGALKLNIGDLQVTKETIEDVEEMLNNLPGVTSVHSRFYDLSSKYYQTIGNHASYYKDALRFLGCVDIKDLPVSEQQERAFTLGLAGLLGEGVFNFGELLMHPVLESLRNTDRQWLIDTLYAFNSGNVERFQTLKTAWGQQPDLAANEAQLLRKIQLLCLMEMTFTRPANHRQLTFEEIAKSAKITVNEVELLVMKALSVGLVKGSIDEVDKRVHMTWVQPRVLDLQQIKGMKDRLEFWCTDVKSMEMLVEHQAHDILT

[5] = target: T5, HeLa cell extract proteins (Homo sapiens, UniProt P61081); conditions: protein UBE2M; HeLa
T5 construct: endogenous in cells; host or cells: HeLa cell extract
T5 sequence (P61081 1-183): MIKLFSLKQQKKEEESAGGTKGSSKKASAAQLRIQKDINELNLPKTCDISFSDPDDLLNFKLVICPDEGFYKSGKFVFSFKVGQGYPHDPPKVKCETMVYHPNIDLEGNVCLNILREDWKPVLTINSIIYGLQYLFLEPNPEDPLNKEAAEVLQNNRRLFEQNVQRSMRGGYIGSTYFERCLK

[6] = target: T6, HeLa cell extract proteins (Homo sapiens, UniProt Q5XKP0); conditions: captured protein C19ORF70; HeLa
T6 construct: endogenous in cells; host or cells: HeLa cell extract
T6 sequence (Q5XKP0 1-118): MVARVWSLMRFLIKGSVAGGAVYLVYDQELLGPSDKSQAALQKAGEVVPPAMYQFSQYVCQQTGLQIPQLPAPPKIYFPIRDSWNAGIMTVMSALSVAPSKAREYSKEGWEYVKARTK

[7] = target: T7, HeLa cell extract proteins (Homo sapiens, UniProt P30405); conditions: protein PPIF; HeLa
T7 construct: endogenous in cells; host or cells: HeLa cell extract
T7 sequence (P30405 30-207): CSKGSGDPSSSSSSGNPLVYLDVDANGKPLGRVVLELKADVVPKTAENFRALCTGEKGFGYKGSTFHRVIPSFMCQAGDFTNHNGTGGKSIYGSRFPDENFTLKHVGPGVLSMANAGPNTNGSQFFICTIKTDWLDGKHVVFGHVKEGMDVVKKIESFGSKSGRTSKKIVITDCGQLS

[8] = target: T8, HeLa cell extract proteins (Homo sapiens, UniProt Q9BSJ2); conditions: captured protein TUBGCP2; HeLa
T8 construct: endogenous in cells; host or cells: HeLa cell extract
T8 sequence (Q9BSJ2 whole entry): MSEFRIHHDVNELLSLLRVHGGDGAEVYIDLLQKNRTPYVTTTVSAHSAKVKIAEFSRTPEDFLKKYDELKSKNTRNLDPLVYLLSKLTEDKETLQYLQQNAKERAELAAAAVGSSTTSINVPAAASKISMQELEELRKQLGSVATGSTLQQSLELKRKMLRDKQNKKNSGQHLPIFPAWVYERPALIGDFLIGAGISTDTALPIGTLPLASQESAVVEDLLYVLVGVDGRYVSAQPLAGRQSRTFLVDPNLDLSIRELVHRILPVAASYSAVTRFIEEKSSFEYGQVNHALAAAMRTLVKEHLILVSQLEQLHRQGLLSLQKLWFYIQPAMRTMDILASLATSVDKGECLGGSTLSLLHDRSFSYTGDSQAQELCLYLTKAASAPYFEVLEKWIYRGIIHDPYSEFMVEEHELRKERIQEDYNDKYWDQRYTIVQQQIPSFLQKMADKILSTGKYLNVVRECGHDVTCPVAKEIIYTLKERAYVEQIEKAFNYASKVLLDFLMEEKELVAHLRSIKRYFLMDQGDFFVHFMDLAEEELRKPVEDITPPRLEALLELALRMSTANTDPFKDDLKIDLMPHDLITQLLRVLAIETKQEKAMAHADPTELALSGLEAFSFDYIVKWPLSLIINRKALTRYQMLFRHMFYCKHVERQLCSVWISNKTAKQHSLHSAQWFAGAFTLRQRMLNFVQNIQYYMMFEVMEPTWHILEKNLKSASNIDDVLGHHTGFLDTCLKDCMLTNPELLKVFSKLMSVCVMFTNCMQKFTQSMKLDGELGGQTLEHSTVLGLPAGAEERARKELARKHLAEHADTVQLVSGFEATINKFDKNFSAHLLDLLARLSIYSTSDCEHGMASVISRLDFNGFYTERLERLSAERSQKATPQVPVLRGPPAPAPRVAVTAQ

[9] = target: T9, HeLa cell extract proteins (Homo sapiens, UniProt A0FGR8); conditions: HeLa; protein FAM62B
T9 construct: endogenous in cells; host or cells: HeLa cell extract
T9 sequence (A0FGR8 1-921): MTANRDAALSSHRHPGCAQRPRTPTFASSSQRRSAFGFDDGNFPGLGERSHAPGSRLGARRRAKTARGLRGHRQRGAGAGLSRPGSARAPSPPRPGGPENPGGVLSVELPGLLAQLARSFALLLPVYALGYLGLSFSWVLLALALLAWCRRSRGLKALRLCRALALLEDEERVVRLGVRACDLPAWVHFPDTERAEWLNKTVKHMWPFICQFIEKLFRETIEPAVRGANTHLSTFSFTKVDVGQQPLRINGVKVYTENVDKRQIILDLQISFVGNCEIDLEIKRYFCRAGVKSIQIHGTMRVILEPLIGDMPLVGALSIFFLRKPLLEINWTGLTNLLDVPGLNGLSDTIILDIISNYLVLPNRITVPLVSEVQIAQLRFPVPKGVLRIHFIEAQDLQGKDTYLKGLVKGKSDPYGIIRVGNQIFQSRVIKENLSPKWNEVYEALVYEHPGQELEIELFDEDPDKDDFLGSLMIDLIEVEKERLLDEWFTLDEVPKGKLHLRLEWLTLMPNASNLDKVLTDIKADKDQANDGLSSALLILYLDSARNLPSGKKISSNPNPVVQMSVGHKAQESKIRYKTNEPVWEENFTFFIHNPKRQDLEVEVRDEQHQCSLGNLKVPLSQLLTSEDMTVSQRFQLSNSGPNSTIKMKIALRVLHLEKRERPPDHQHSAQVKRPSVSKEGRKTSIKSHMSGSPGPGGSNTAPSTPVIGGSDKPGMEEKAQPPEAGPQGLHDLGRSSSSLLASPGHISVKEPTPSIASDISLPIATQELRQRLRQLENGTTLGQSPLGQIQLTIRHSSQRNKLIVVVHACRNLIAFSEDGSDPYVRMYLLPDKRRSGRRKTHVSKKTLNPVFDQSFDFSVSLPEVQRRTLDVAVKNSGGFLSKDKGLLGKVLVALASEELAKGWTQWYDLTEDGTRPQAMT

[10] = HeLa, protein LOC284889 (MACROPHAGE MIGRATION INHIBITORY FACTOR)

| Structure (SMILES) | fold changes relative to vehicle control ([1]; HeLa, protein HIST1H2AD) | fold changes relative to vehicle control ([2]; HeLa, protein PDE12) | fold changes relative to vehicle control [3, 10] | fold changes relative to vehicle control ([4]; protein PSMD13, HeLa) | fold changes relative to vehicle control [5] | fold changes relative to vehicle control [6] | fold changes relative to vehicle control [7] | fold changes relative to vehicle control [8] | fold changes relative to vehicle control [9] | also measured |
| --- | --- | --- | --- | --- | --- | --- | --- | --- | --- | --- |
| Nc1nc2c(c(=O)[nH]1)N(C=O)C(CNc1ccc(C(=O)N[C@@H](CCC(=O)O)C(=O)O)cc1)CN2 (stereo partly shown) [LEU, leucovorin] | 0.96 | 0.93 | 1.32 | 0.95 |  |  |  |  |  |  |
| NCCCNc1ccc(C(=O)NC(CCC(=O)O)C(=O)O)cc1 (stereo not shown) [compound 7] | 0.97 | 1.34 | 1.25 | 0.86 |  |  |  |  |  |  |
| CCCCCCOc1cccc(Cc2cnc(N)nc2N)c1 [compound 2] |  |  |  |  | 1.71 | 1.14 | 1.79 | 1.01 | 1.29 |  |
| CCCCCCOc1ccc(Cc2cnc(N)nc2N)cc1 [compound 1] |  |  |  |  | 1.2 | 1.16 | 1.23 | 0.76 | 0.82 |  |
| Nc1nc2cccc(-c3ccccc3)c2n1Cc1ccc(Cl)c(Cl)c1 [compound 3] |  |  |  |  | 0.83 | 1.13 | 0.95 | 0.99 | 0.96 |  |
| NCCOCCOCC(=O)Nc1nc2ncc(CNc3ccc(C(=O)NC(CCC(=O)O)C(=O)O)cc3)nc2c(=O)[nH]1 (stereo not shown) [compound 6] | 1.18 | 1.1 | 1.26 | 1.02 |  |  |  |  |  |  |
| Nc1nc2[nH]cc(CCc3ccc(C(=O)N[C@@H](CCC(=O)O)C(=O)O)cc3)c2c(=O)[nH]1 [PTX, pemetrexed] |  |  |  |  |  |  |  |  |  | fold changes relative to vehicle control [1]: 1.03; fold changes relative to vehicle control [2]: 1.04; fold changes relative to vehicle control [3]: 1.29; fold changes relative to vehicle control [4]: 0.88 |

Reference: article PMC6199744, “Development of Chemical Proteomics for the Folateome and Analysis of the Kinetoplastid Folateome” (ACS Infectious Diseases, 2018)
